Source: ChEMBL document CHEMBL4387753 (Bioorg Med Chem, 2019)
Values after ≈ are worked out from the molar mass of the structure shown.

Legend:
Format in all cases: functional
Bacillus subtilis = experiment: Antibacterial activity against Bacillus subtilis ATCC 9372 incubated for 24 hrs by CLSI protocol based broth microdilution method; conditions: ATCC 9372, 24 h
Bacillus pumilus = experiment: Antibacterial activity against Bacillus pumilus CMCC63202 incubated for 24 hrs by CLSI protocol based broth microdilution method; conditions: CMCC63202, 24 h
Staphylococcus aureus [1] = experiment: Antibacterial activity against Staphylococcus aureus ATCC 25923 incubated for 24 hrs by CLSI protocol based broth microdilution method; conditions: ATCC 25923, 24 h
Staphylococcus aureus [2] = experiment: Antibacterial activity against methicillin-resistant Staphylococcus aureus ATCC 43300 incubated for 24 hrs by CLSI protocol based broth microdilution method; conditions: ATCC 43300, 24 h
Staphylococcus aureus [3] = experiment: Antibacterial activity against penicillin-resistant Staphylococcus aureus clinical isolate incubated for 24 hrs by CLSI protocol based broth microdilution method
Staphylococcus aureus [4] = experiment: Antibacterial activity against Staphylococcus aureus clinical isolate incubated for 24 hrs by CLSI protocol based broth microdilution method
Escherichia coli = experiment: Antibacterial activity against Escherichia coli ATCC 25922 incubated for 24 hrs by CLSI protocol based broth microdilution method; conditions: ATCC 25922, 24 h
Pseudomonas aeruginosa = experiment: Antibacterial activity against Pseudomonas aeruginosa ATCC 27853 incubated for 24 hrs by CLSI protocol based broth microdilution method; conditions: ATCC 27853, 24 h

SMILES	MIC (Bacillus subtilis) [µg/mL]	MIC (Bacillus pumilus) [µg/mL]	MIC (Staphylococcus aureus [1]) [µg/mL]	MIC (Staphylococcus aureus [2]) [µg/mL]	MIC (Staphylococcus aureus [3]) [µg/mL]	MIC (Staphylococcus aureus [4]) [µg/mL]	MIC (Escherichia coli) [µg/mL]	MIC (Pseudomonas aeruginosa) [µg/mL]
NC(=O)c1c(F)ccc(OCc2nn(-c3ccccc3)c(=O)o2)c1F	4 (≈ 11.5 µM)	64 (≈ 184 µM)	16 (≈ 46.1 µM)	16 (≈ 46.1 µM)	32 (≈ 92.1 µM)	16 (≈ 46.1 µM)	> 64	> 64
CCCCc1ccc(N2N=C(COc3ccc(F)c(C(N)=O)c3F)CC2=O)cc1	> 64	> 64	> 64	> 64	64 (≈ 159 µM)	–	> 64	> 64
CC(C)(C)c1ccc(-c2nn(COc3ccc(F)c(C(N)=O)c3F)c(=O)o2)cc1	8 (≈ 19.8 µM)	32 (≈ 79.3 µM)	> 64	> 64	> 64	> 64	> 64	> 64
CC(C)CCn1c(COc2ccc(F)c(C(N)=O)c2F)nn(-c2ccc(Br)cc2)c1=O	> 64	> 64	> 64	> 64	> 64	–	> 64	> 64
NC(=O)c1c(F)ccc(OCc2nn(-c3ccc(Br)cc3)c(=O)n2Cc2ccccc2)c1F	> 64	> 64	> 64	> 64	> 64	–	> 64	> 64
Cn1c(COc2ccc(F)c(C(N)=O)c2F)nn(-c2ccc(Br)cc2)c1=O	64 (≈ 146 µM)	1 (≈ 2.28 µM)	> 64	> 64	> 64	–	> 64	> 64
CC(C)(C)c1ccc(N2N=C(COc3ccc(F)c(C(N)=O)c3F)CC2=O)cc1	> 64	> 64	> 64	> 64	64 (≈ 159 µM)	–	> 64	> 64
CCCn1c(COc2ccc(F)c(C(N)=O)c2F)nn(-c2ccc(Br)cc2)c1=O	32 (≈ 68.5 µM)	> 64	> 64	32 (≈ 68.5 µM)	> 64	–	> 64	> 64
CC(C)Cn1c(COc2ccc(F)c(C(N)=O)c2F)nn(-c2ccc(Br)cc2)c1=O	> 64	> 64	> 64	> 64	> 64	–	> 64	> 64
CC[C@H]1OC(=O)[C@H](C)[C@@H](O[C@H]2C[C@@](C)(OC)[C@@H](O)[C@H](C)O2)[C@H](C)[C@@H](O[C@@H]2O[C@H](C)C[C@H](N(C)C)[C@H]2O)[C@](C)(O)C[C@@H](C)C(=O)[C@H](C)[C@@H](O)[C@]1(C)O [ERYTHROMYCIN]	≤ 0.125	≤ 0.125	≤ 0.125	> 64	–	> 64	16 (≈ 21.8 µM)	32 (≈ 43.6 µM)
NC(=O)c1c(F)ccc(OCC2=NN(c3ccc(Cl)cc3)C(=O)C2)c1F	> 64	> 64	> 64	> 64	> 64	–	> 64	> 64
CN(C)n1c(COc2ccc(F)c(C(N)=O)c2F)nn(-c2ccc(Br)cc2)c1=O	32 (≈ 68.3 µM)	32 (≈ 68.3 µM)	32 (≈ 68.3 µM)	16 (≈ 34.2 µM)	32 (≈ 68.3 µM)	–	> 64	> 64
NC(=O)c1c(F)ccc(OCc2nn(-c3ccc(Br)cc3)c(=O)n2N)c1F	16 (≈ 36.3 µM)	64 (≈ 145 µM)	> 64	> 64	> 64	–	> 64	> 64
CCCCCCCCn1c(COc2ccc(F)c(C(N)=O)c2F)nn(-c2ccc(Br)cc2)c1=O	> 64	> 64	> 64	> 64	> 64	–	> 64	> 64
CCCCn1c(COc2ccc(F)c(C(N)=O)c2F)nn(-c2ccc(Br)cc2)c1=O	> 64	> 64	> 64	> 64	> 64	–	> 64	> 64
